Assay results from patent US8748422B2, “Pharmaceutical compositions containing quinazoline derivatives for treating as serotonin receptor antagonist” (Korea Institute of Science and Technology, priority 2007, dated 2014).

Biological target: T1, serotonin 5-HT3A receptor (Homo sapiens, UniProt P46098)
T1 sequence (P46098 24-478): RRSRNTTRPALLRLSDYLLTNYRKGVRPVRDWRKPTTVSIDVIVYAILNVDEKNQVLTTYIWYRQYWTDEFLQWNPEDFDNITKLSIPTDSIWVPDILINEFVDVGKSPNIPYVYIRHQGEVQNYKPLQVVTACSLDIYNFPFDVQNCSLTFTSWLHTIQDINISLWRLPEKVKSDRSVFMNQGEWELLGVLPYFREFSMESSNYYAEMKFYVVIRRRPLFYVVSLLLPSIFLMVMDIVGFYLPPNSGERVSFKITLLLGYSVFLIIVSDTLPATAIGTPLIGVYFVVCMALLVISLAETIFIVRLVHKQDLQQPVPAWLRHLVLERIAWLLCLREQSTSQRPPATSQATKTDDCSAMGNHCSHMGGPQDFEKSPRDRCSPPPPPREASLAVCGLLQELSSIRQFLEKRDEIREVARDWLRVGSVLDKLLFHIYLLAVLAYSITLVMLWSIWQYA
Assay: Assay for 5-HT3A receptor: two-electrode voltage clamp in Xenopus oocytes, inhibition of 5-HT-induced inward current
Type: cell-based
Settings: 5-HT3A receptor expressed in Xenopus laevis oocytes; for nH (Hill coefficient) / inhibition: from concentration-response curves; for inhibition / IC50: inward current induced by 5-HT (1 μM); for inhibition: read-out: Vmax (maximum inhibition value); for IC50: test concentrations 0.003-100 μM, read-out: IC50 (50% inhibitory concentration)

Row | Structure (SMILES) | nH (Hill coefficient) | inhibition [%] | IC50 [nM]
1 | O=C(NCCN1CCCC1)c1ccc2c(=O)n(Cc3ccc(Cl)cc3)c(=O)[nH]c2c1 [Compound 1, 3-(4-Chloro-benzyl)-2,4-dioxo-1,2,3,4-tetrahydro-quinazoline-7-carboxylic acid (2-pyrrolidine-1-yl-ethyl)-amide] | 0.9 ± 0.1 | 103 ± 12.8 | 7500 ± 2500
2 | O=C(NCCN1CCCCC1)c1ccc2c(=O)n(-c3ccc(F)cc3)c(=O)[nH]c2c1 [Compound 2, 3-(4-Fluoro-phenyl)-2,4-dioxo-1,2,3,4-tetrahydro-quinazoline-7-carboxylic acid (2-piperidine-1-yl-ethyl)-amide] | 0.9 ± 0.1 | 108 ± 6 | 1900 ± 400
3 | COc1ccc(-n2c(=O)[nH]c3cc(C(=O)NCCN4CCCCC4)ccc3c2=O)cc1 [Compound 3, 3-(4-Methoxy-phenyl)-2,4-dioxo-1,2,3,4-tetrahydro-quinazoline-7-carboxylic acid (2-piperidine-1-yl-ethyl)-amide] | 1.4 ± 0.2 | 101 ± 3.6 | 1600 ± 200
4 | O=C(NCCN1CCCCC1)c1ccc2c(=O)n(Cc3ccccc3F)c(=O)[nH]c2c1 [Compound 4, 3-(2-Fluoro-benzyl)-2,4-dioxo-1,2,3,4-tetrahydro-quinazoline-7-carboxylic acid (2-piperidine-1-yl-ethyl)-amide] | 1.4 ± 0.4 | 100 ± 9.6 | 2100 ± 600
5 | O=C(NCCN1CCCCC1)c1ccc2c(=O)n(Cc3cccc(F)c3)c(=O)[nH]c2c1 [Compound 5, 3-(3-Fluoro-benzyl)-2,4-dioxo-1,2,3,4-tetrahydro-quinazoline-7-carboxylic acid (2-piperidine-1-yl-ethyl)-amide] | 1.0 ± 0.2 | 108 ± 11.5 | 2400 ± 800
6 | O=C(NCCN1CCCCC1)c1ccc2c(=O)n(Cc3ccc(F)cc3)c(=O)[nH]c2c1 [Compound 6, 3-(4-Fluoro-benzyl)-2,4-dioxo-1,2,3,4-tetrahydro-quinazoline-7-carboxylic acid (2-piperidine-1-yl-ethyl)-amide] | 1.0 ± 0.2 | 105 ± 7.5 | 1900 ± 400
7 | COc1ccccc1Cn1c(=O)[nH]c2cc(C(=O)NCCN3CCCCC3)ccc2c1=O [Compound 7, 3-(2-Methoxy-benzyl)-2,4-dioxo-1,2,3,4-tetrahydro-quinazoline-7-carboxylic acid (2-piperidine-1-yl-ethyl)-amide] | 1.1 ± 0.2 | 103 ± 5.1 | 1400 ± 200
8 | COc1cccc(Cn2c(=O)[nH]c3cc(C(=O)NCCN4CCCCC4)ccc3c2=O)c1 [Compound 8, 3-(3-Methoxybenzyl)-2,4-dioxo-1,2,3,4-tetrahydro-quinazoline-7-carboxylic acid (2-piperidine-1-yl-ethyl)-amide] | 1.3 ± 0.3 | 107 ± 8.5 | 2700 ± 600
9 | COc1ccc(Cn2c(=O)[nH]c3cc(C(=O)NCCN4CCCCC4)ccc3c2=O)cc1 [Compound 9, 3-(4-Methoxybenzyl)-2,4-dioxo-1,2,3,4-tetrahydro-quinazoline-7-carboxylic acid (2-piperidine-1-yl-ethyl)-amide] | 1.7 ± 0.2 | 96.4 ± 2.9 | 800 ± 100
10 | O=C(NCCN1CCCCC1)c1ccc2c(=O)n(C3CCCCC3)c(=O)[nH]c2c1 [Compound 10, 3-Cyclohexyl-2,4-dioxo-1,2,3,4-tetrahydro-quinazoline-7-carboxylic acid (2-piperidine-1-yl-ethyl)-amide] | 1.1 ± 0.1 | 98.8 ± 4.2 | 2000 ± 300
11 | CCCn1c(=O)[nH]c2cc(C(=O)NCCN3CCCCC3)ccc2c1=O [Compound 11, 2,4-Dioxo-3-propyl-1,2,3,4-tetrahydro-quinazoline-7-carboxylic acid (2-piperidine-1-yl-ethyl)-amide] | 1.3 ± 0.1 | 104 ± 3.6 | 2200 ± 200
12 | Cn1c(=O)[nH]c2cc(C(=O)NCCN3CCCCC3)ccc2c1=O [Compound 12, 3-Methyl-2,4-dioxo-1,2,3,4-tetrahydro-quinazoline-7-carboxylic acid (2-piperidine-1-yl-ethyl)-amide] | 1.4 ± 0.1 | 103 ± 3.3 | 2200 ± 200
13 | O=C(NCCN1CCCCC1)c1ccc2c(=O)n(Cc3ccccc3Cl)c(=O)[nH]c2c1 [Compound 13, (2-Chloro-benzyl)-2,4-dioxo-1,2,3,4-tetrahydro-quinazoline-7-carboxylic acid (2-piperidine-1-yl-ethyl)-amide] | – | 96 ± 3.9 | –
14 | O=C(NCCN1CCCCC1)c1ccc2c(=O)n(Cc3ccc(Cl)cc3)c(=O)[nH]c2c1 [Compound 14, 3-(4-Chloro-benzyl)-2,4-dioxo-1,2,3,4-tetrahydro-quinazoline-7-carboxylic acid (2-piperidine-1-yl-ethyl)-amide] | 1.2 ± 0.2 | 106 ± 2.5 | 3300 ± 500
15 | CC1CCCCN1CCNC(=O)c1ccc2c(=O)n(Cc3ccc(Cl)cc3)c(=O)[nH]c2c1 (centres unmarked) [Compound 15, 3-(4-Chloro-benzyl)-2,4-dioxo-1,2,3,4-tetrahydro-quinazoline-7-carboxylic acid (2-(2-methylpiperidine-1-yl)ethyl)-amide] | 1.2 ± 0.1 | 104 ± 2.5 | 2800 ± 200
16 | O=C(NCCCN1CCOCC1)c1ccc2c(=O)n(Cc3ccc(Cl)cc3)c(=O)[nH]c2c1 [Compound 16, 3-(4-Chloro-benzyl)-2,4-dioxo-1,2,3,4-tetrahydro-quinazoline-7-carboxylic acid (3-morpholine-4-yl-propyl)-amide] | 5.3 ± 1.5 | 52.5 ± 0.6 | 1300 ± 100
17 | CCC1CCCCN1CCCNC(=O)c1ccc2c(=O)n(Cc3ccc(Cl)cc3)c(=O)[nH]c2c1 (centres unmarked) [Compound 18, 3-(4-Chloro-benzyl)-2,4-dioxo-1,2,3,4-tetrahydro-quinazoline-7-carboxylic acid [3-(2-ethyl-piperidine-1-yl)-propyl]-amide] | 1.4 ± 0.1 | 99.5 ± 1.6 | 4800 ± 200
18 | O=C(NCCCN1CCCCC1)c1ccc2c(=O)n(Cc3ccc(Cl)cc3)c(=O)[nH]c2c1 [Compound 19, 3-(4-Chloro-benzyl)-2,4-dioxo-1,2,3,4-tetrahydro-quinazoline-7-carboxylic acid (3-piperidine-1-yl-propyl)-amide] | 1.5 ± 0.2 | 98.2 ± 4.5 | 5700 ± 600
19 | CN1[C@@H]2CC[C@H]1C[C@@H](OC(=O)c1cc(Cl)cc(Cl)c1)C2 [MDL72222, reference compound] | 1.25 ± 0.2 | – | –
